Experiments:
B. subtilis = assay: Antibiotic activity of electropherogram spot; assay type: cell-based
Escherichia coli = assay: Antibiotic activity of electropherogram spot; assay type: cell-based
Pseudomonas aeruginosa = assay: Antibiotic activity of electropherogram spot; assay type: cell-based
[1] = Antibiotic activity of electropherogram spot (germ not stated); assay type: cell-based
Klebsiella pneumoniae = assay: In vitro turbidity test (Muller-Hinton broth); assay type: cell-based; conditions: 100 μg/ml, 24 hours incubation
[2] = system: Enterobacter aerogenes sp.; assay: In vitro turbidity test (Muller-Hinton broth); assay type: cell-based; conditions: 100 μg/ml, 24 hours incubation
Providencia = assay: In vitro turbidity test (Muller-Hinton broth); assay type: cell-based; conditions: 100 μg/ml, 24 hours incubation
Serratia marcescens = assay: In vitro turbidity test (Muller-Hinton broth); assay type: cell-based; conditions: 100 μg/ml, 24 hours incubation
Escherichia coli BE = assay: In vitro turbidity test (Muller-Hinton broth); assay type: cell-based; conditions: 100 μg/ml, 24 hours incubation
Salmonella sp. = assay: In vitro turbidity test (Muller-Hinton broth); assay type: cell-based; conditions: 100 μg/ml, 24 hours incubation
Shigella sp. = assay: In vitro turbidity test (Muller-Hinton broth); assay type: cell-based; conditions: 100 μg/ml, 24 hours incubation
[3] = system: Proteus, indole negative and indole positive sp.; assay: In vitro turbidity test (Muller-Hinton broth); assay type: cell-based; conditions: 100 μg/ml, 24 hours incubation
[4] = system: Pasteurella pseudotuberculosis; assay type: cell-based; conditions: 100 μg/ml, 24 hours incubation
Brucella sp. = assay type: cell-based; conditions: 100 μg/ml, 24 hours incubation
Haemophilis influenzae = assay: In vitro turbidity test (Muller-Hinton broth); assay type: cell-based; conditions: 100 μg/ml, 24 hours incubation
[5] = system: Bordetella bronchiseptica; assay: In vitro turbidity test (Muller-Hinton broth); assay type: cell-based; conditions: 100 μg/ml, 24 hours incubation
[6] = system: Staphylococcus aureus 133; assay: In vitro turbidity test (Muller-Hinton broth); assay type: cell-based; conditions: 100 μg/ml, 24 hours incubation
[7] = system: Neisseria catarrhalis sp.; assay: In vitro turbidity test (Muller-Hinton broth); assay type: cell-based; conditions: 100 μg/ml, 24 hours incubation
[8] = system: Diplococcus pneumoniae sp.; assay: In vitro turbidity test (Muller-Hinton broth); assay type: cell-based; conditions: 100 μg/ml, 24 hours incubation
[9] = system: Streptococcus pyogenes W.; assay: In vitro turbidity test (Muller-Hinton broth); assay type: cell-based; conditions: 100 μg/ml, 24 hours incubation
Enterococcus sp. = assay: In vitro turbidity test (Muller-Hinton broth); assay type: cell-based; conditions: 100 μg/ml, 24 hours incubation
Lactobacillus sp. = assay: In vitro turbidity test (Muller-Hinton broth); assay type: cell-based; conditions: 100 μg/ml, 24 hours incubation
[10] = system: Corynebacterium diphteriae gravis; assay: In vitro turbidity test (Muller-Hinton broth); assay type: cell-based; conditions: 100 μg/ml, 24 hours incubation
[11] = system: Corynebacterium pyogenes M.; assay: In vitro turbidity test (Muller-Hinton broth); assay type: cell-based; conditions: 100 μg/ml, 24 hours incubation
Escherichia coli C 165 = assay: Animal experiments with white mice (intraperitoneal infection); assay type: in vivo, white mice of strain CF1 infected with Escherichia coli; conditions: C165, sc, white mice CF1, subcutaneous, 1 administration 30 minutes after infection (1 × dose), 50% survive after 24 hours
Protocol: (§1) The white mice of strain CF1 were infected intraperitoneally with the species of bacteria indicated.
(§2) Determination of the ED50 after 24 hours
(§3) Therapy: 1 administration 30 minutes after infection.
(§4) The ED50 is the dose at which 50% of the infected animals still survive after 24 hours.

[12] = system: Staphylococcus aureus 133; assay: as above; assay type: in vivo, white mice of strain CF1 infected with Staphylococcus aureus; conditions: Staphylococcus aureus, 133, sc; white mice CF1, subcutaneous, 1 administration 30 minutes after infection (1 × dose); 50% survive after 24 hours
Protocol: as §1, §2, §3, §4

Klebsiella = assay: as above; assay type: in vivo, white mice of strain CF1 infected with Klebsiella; conditions: sc, white mice CF1, subcutaneous, 1 administration 30 minutes after infection (1 × dose), 50% survive after 24 hours
Protocol: as §1, §2, §3, §4

[13] = system: bacteria from the genus Pseudomonades; conditions: known art; cited from earlier work

| Compound | freedom from turbidity (Klebsiella pneumoniae) | freedom from turbidity [2] | freedom from turbidity (Providencia) | freedom from turbidity (Serratia marcescens) | freedom from turbidity (Escherichia coli BE) | freedom from turbidity (Salmonella sp.) | freedom from turbidity (Shigella sp.) | freedom from turbidity [3] | freedom from turbidity [4] | freedom from turbidity (Brucella sp.) | freedom from turbidity (Haemophilis influenzae) | freedom from turbidity [5] | freedom from turbidity [6] | freedom from turbidity [7] | freedom from turbidity [8] | freedom from turbidity [9] | freedom from turbidity (Enterococcus sp.) | freedom from turbidity (Lactobacillus sp.) | freedom from turbidity [10] | freedom from turbidity [11] | other results |
| --- | --- | --- | --- | --- | --- | --- | --- | --- | --- | --- | --- | --- | --- | --- | --- | --- | --- | --- | --- | --- | --- |
| CC(=O)OCC1=C(C(=O)[O-])N2C(=O)C(NC(=O)[C@H](NC(=O)N3CCNC3=O)c3ccccc3)[C@H]2SC1.[Na+] (stereo partly drawn) [Example 1, sodium 7-{D-α-[(2-oxo-imidazolidin-1-yl)-carbonylamino]-phenylacetamido}-3-acetoxymethyl-ceph-3-em-4-carboxylate] | – | – | – | – | – | – | – | – | – | – | – | – | – | – | – | – | – | – | – | – | antibiotic activity of the electropherogram spot (B. subtilis): only one spot with antibiotic activity; antibiotic activity of the electropherogram spot (Escherichia coli): only one spot with antibiotic activity; antibiotic activity of the electropherogram spot (Pseudomonas aeruginosa): only one spot with antibiotic activity |
| CC1=C(C(=O)O)N2C(=O)C(NC(=O)[C@H](NC(=O)N3CCNC3=O)c3ccccc3)[C@H]2SC1 (stereo partly drawn) [Example 2, 7-{D-α-[(2-Oxo-imidazolidin-1-yl)-carbonylamino]-phenylacetamido}-3-methyl-ceph-3-em-4-carboxylic acid] | – | – | – | – | – | – | – | – | – | – | – | – | – | – | – | – | – | – | – | – | antibiotic activity of the electropherogram spot [1]: only one spot with antibiotic activity |
| CC(=O)OCC1=C(C(=O)[O-])N2C(=O)C(NC(=O)[C@H](NC(=O)N3CCN(C)C3=O)c3ccccc3)[C@H]2SC1.[Na+] (stereo partly drawn) [Example 3, sodium 7-{D-α-[(3-methyl-2-oxo-imidazolidin-1-yl)-carbonylamino]-phenylacetamido}-3-acetoxymethyl-ceph-3-em-4-carboxylate] | free from turbidity | free from turbidity | free from turbidity | free from turbidity | free from turbidity | free from turbidity | free from turbidity | free from turbidity | free from turbidity | free from turbidity | free from turbidity | free from turbidity | free from turbidity | free from turbidity | free from turbidity | free from turbidity | free from turbidity | free from turbidity | free from turbidity | free from turbidity | – |
| CC(=O)OCC1=C(C(=O)[O-])N2C(=O)C(NC(=O)[C@H](NC(=O)N3CCN(S(C)(=O)=O)C3=O)c3ccccc3)[C@H]2SC1.[Na+] (stereo partly drawn) [Example 6, Sodium 7-{D-α-[(2-oxo-3-mesyl-imidazolidin-1-yl)-carbonylamino]-phenylacetamido}-3-acetoxymethyl-ceph-3-em-4-carboxylate] | free from turbidity | free from turbidity | free from turbidity | free from turbidity | free from turbidity | free from turbidity | free from turbidity | free from turbidity | free from turbidity | free from turbidity | free from turbidity | free from turbidity | free from turbidity | free from turbidity | free from turbidity | free from turbidity | free from turbidity | free from turbidity | free from turbidity | free from turbidity | ED50 (Escherichia coli C 165): 200 mg/kg; ED50 [12]: 10 mg/kg; ED50 (Klebsiella): 150 mg/kg; antibiotic activity of the electropherogram spot [1]: only shows one spot with antibiotic activity |
| CC(=O)OCC1=C(C(=O)[O-])N2C(=O)C(NC(=O)[C@H](NC(=O)N3CCN(S(=O)(=O)c4ccccc4)C3=O)c3ccccc3)[C@H]2SC1.[Na+] (stereo partly drawn) [Example 7, Sodium 7-{D-α-[(2-oxo-3-phenylsulphonyl-imidazolidin-1-yl)-carbonylamino]-phenylacetamido}-3-acetoxymethyl-ceph-3-em-4-carboxylate] | free from turbidity | free from turbidity | free from turbidity | free from turbidity | free from turbidity | free from turbidity | free from turbidity | free from turbidity | free from turbidity | free from turbidity | free from turbidity | free from turbidity | free from turbidity | free from turbidity | free from turbidity | free from turbidity | free from turbidity | free from turbidity | free from turbidity | free from turbidity | – |
| CC(=O)OCC1=C(C(=O)O)N2C(=O)C(NC(=O)C(N)c3ccccc3)[C@H]2SC1 (stereo partly drawn) [cephaloglycine, 7-(α-amino-phenylacetamido)-3-acetoxymethyl-ceph-3-em-4-carboxylic acid] | – | – | – | – | – | – | – | – | – | – | – | – | – | – | – | – | – | – | – | – | activity against infections caused by Pseudomonades [13]: not active |

— patent publication US4093722A, “Sulfonylimidazolidone substituted cephalosporins, antibacterial compositions containing them, and methods of combatting bacteria employing them” (Bayer Aktiengesellschaft, priority 1974, dated 1978)
